Activity calls are given as the source filed them.
Experiments:
[1] = inhibitors of HIV Env-driven cell fusion, dose response, cherry-pick (AID 652057); type: functional, cell-based
HEK293 [2] = test: HEK293T cell cytotoxicity, dose response, cytotoxicity control, ATP luminescence, cherry-pick samples (AID 687005); type: functional, cell-based; details: Homo sapiens;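 also: cells exposed to compound for 48 hours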
[3] = inhibitors of clade B AD8 Env fusion, dose response, cell-based, cherry-pick (AID 652062); type: functional;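 also: luciferase signal from cell-cell fusion driven by HIV-1 clade B AD8 Env; potency is for inhibitors of fusion seen as a drop in luminescence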
[4] = HEK293 Cytotoxicity Assay Measured in Cell-Based System Using Plate Reader - 7071-01_Inhibitor_Dose_CherryPick_Activity_Set2.; type: functional
HepG2 = test: HepG2 cell cytotoxicity, dose response, cytotoxicity control, cherry-picks, set 2 (AID 687002); type: functional, cell-based; details: Homo sapiens
[5] = HepG2 cell cytotoxicity, dose response, cytotoxicity control, ATP luminescence, cherry-pick, activator set 2 (AID 1053143); type: functional, cell-based
[6] = A Cell-Based Confirmatory Screen for Compounds that Inhibit VEEV, TC-83 (7).; type: functional
Paired box protein Pax-8 = Paired box protein Pax-8 (Homo sapiens, UniProt Q06710); test: inhibitors of PAX8-driven TPO luciferase reporter, dose response, RMG-I cells, cherry-pick (AID 687027); type: functional, cell-based;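 also: luciferase reporter driven by Pax8 target thyroperoxidase promoter measured by SteadyGlo luminescence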
[7] = cytotoxicity in OVCAR8 ovarian cancer cells, dose response, PAX8 project, cell-based, plate reader, dry powder samples (AID 743197); type: functional; details: OVCAR-8
[8] = miR-122 activators in hepatoma reporter cells, dose response, cell-based, Huh7 psiCHECK-miR122, Renilla luciferase, cherry-picked (AID 651956); type: functional;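 also: huh7 hepatoma cells stably carrying a psiCHECK-2 miR-122 sensor plasmid; renilla luciferase signal reporting endogenous miR-122 activity after 48 h compound exposure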
[9] = HEK293T cytotoxicity, dose response, cytotoxicity control for miR-122 modulator project, cell-based, activator set, cherry-pick (AID 720690); type: functional;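 also: HEK293T human cells scored for general mammalian cytotoxicity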
[10] = HeLa cell cytotoxicity, dose response, cytotoxicity control, 24 h, plate reader, dry powder (AID 686928); type: functional, cell-based
[11] = biological target: COUP transcription factor 2 (Homo sapiens, UniProt P24468); test: Luminescence-based cell-based high throughput dose response assay to identify inhibitors of COUP-TFII (NR2F2).; type: functional;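 also: HEK293 cells transiently cotransfected with COUP-TFII expression vector and reporter; luciferase reporter luminescence driven by COUP-TFII from the pX2-168 reporter plasmid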
[12] = cytotoxicity toward NIH3T3 fibroblasts, dose response, counter-screen, cell-based, ATP luminescence, mouse fibroblasts (AID 2010); type: functional;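 also: cells exposed to compound for about 90 hours before reading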
[13] = inhibitors of intracellular T. cruzi replication, confirmation, NIH3T3 host cells, beta-gal luminescence (AID 2044); type: functional, cell-based;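 also: intracellular parasites grown in NIH/3T3 mouse fibroblasts as host cells; luminescent beta-galactosidase reporter signal from transgenic T. cruzi replicating inside host cells; inhibitors lower the luminescence signal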
[14] = biological target: Delta-type opioid receptor (Homo sapiens, UniProt P41143); test: Late-stage results from the probe development effort to identify antagonists of OPRK1: fluorescence-based cell-based dose response OPRD1 counterscreen.; type: functional
Mu-type opioid receptor = Mu-type opioid receptor (Homo sapiens, UniProt P35372); test: Late-stage results from the probe development effort to identify antagonists of OPRK1: luminescence-based cell-based dose response OPRM1 counterscreen.; type: functional
[15] = T. cruzi growth inhibition in host cells, dose response, cell-based, plate reader, dry powder, set 2 (AID 652275); type: functional
HEK293 [16] = test: inhibitors of LMP1-driven NF-kB reporter, dose response, cell-based, HEK293, luciferase, cherry-pick (AID 588343); type: functional; details: Homo sapiens
[17] = control 3'UTR Renilla luciferase suppression, dose response, counter-screen for Shn3 inhibitor project, cell-based, Clone20-Shn3RL, cherry-picked (AID 624133); type: functional
Interleukin-8 [18] = biological target: T1, Interleukin-8 (Homo sapiens, UniProt P10145); test: Dose Response confirmation of uHTS small molecule hits for cystic fibrosis induced NFkb Inhibitors in a PAF-induced IL8 counterscreen.; type: functional; details: read-out: IC50_Mean
[19] = HepG2 cell cytotoxicity, dose response, cytotoxicity control for Shn3 inhibitor project, CellTiter-Glo, cherry-picked (AID 624134); type: functional, cell-based
[20] = reduction of Shn3 3'UTR firefly luciferase signal, dose response, Schnurri-3 inhibitor project, cell-based, Clone20 osteoblasts, cherry-pick, set 2 (AID 720490); type: functional;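 also: actives lower the luminescence signal as inhibitors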
Interleukin-8 [21] = biological target: T1, Interleukin-8; test: Dose Response confirmation of uHTS small molecule hits for cystic fibrosis induced NFkb Inhibitors in a TNFa-induced IL8 counterscreen.; type: functional; details: read-out: IC50_Mean
[22] = inhibitors of control Renilla luciferase reporter, dose response, counter-screen for Shn3 3'UTR targeting project, Clone20-Shn3RL cells, dual-Glo, cherry-pick, set 2 (AID 720724); type: functional, cell-based; details: Dual-Go Shn3RL
[23] = Shn3 3'UTR reporter inhibitors, dose response, cell-based, Clone20 osteoblasts, firefly luciferase, cherry-picked (AID 624132); type: functional;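 also: firefly luciferase luminescence from reporter carrying the Shn3 3'UTR in osteoblasts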

T1 sequence (P10145 whole entry): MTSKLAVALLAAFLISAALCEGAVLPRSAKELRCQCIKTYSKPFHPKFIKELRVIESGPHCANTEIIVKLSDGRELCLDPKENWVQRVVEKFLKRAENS
Delta-type opioid receptor, sequence (P41143 whole entry): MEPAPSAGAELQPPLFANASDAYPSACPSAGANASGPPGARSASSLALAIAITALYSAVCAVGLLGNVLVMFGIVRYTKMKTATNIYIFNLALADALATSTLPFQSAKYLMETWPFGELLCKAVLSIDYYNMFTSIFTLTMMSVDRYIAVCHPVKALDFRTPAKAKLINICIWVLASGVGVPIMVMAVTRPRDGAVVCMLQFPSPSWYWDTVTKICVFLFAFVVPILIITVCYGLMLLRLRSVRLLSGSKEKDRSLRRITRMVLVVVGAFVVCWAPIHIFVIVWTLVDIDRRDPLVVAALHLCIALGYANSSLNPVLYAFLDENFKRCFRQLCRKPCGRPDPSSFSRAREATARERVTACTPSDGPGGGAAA
COUP transcription factor 2, sequence (P24468 whole entry): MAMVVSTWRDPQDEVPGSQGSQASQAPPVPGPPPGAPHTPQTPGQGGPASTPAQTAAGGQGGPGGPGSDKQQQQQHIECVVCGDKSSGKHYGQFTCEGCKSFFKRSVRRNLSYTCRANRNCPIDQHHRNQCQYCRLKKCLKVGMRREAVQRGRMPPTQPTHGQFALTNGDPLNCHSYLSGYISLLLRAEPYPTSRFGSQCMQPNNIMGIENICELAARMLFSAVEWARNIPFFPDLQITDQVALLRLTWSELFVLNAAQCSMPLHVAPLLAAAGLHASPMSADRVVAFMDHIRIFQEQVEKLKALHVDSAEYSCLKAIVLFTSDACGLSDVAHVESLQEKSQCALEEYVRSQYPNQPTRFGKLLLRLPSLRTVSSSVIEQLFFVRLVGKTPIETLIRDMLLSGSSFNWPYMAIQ
Mu-type opioid receptor, sequence (P35372 whole entry): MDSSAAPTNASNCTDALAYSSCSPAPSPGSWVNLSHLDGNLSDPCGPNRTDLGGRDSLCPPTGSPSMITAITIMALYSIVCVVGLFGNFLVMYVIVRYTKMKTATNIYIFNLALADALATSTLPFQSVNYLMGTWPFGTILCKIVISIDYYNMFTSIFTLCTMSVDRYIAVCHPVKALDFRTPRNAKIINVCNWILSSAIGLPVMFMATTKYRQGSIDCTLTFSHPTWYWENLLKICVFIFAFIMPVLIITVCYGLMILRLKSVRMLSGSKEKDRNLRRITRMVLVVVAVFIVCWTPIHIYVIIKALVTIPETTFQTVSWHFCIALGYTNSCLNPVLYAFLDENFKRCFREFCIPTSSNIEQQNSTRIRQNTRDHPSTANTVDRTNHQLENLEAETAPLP
Paired box protein Pax-8, sequence (Q06710 whole entry): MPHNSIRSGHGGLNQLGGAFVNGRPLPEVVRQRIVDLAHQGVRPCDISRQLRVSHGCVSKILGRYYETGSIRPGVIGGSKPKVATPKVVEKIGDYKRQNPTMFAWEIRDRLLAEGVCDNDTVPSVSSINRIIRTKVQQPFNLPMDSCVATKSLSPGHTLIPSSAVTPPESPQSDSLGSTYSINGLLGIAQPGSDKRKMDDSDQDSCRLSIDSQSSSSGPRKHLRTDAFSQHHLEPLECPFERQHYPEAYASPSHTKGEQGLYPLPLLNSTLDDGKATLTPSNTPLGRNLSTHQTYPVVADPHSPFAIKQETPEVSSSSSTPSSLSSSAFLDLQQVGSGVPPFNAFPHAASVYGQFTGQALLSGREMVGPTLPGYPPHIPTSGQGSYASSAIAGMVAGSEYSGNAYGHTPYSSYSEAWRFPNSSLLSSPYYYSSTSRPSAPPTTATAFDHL

**Q.** Which AC50 [1] does the source give for C[C@H](CO)N1C[C@H](C)[C@H](CN(C)Cc2ccccc2F)Oc2cc(C3=CCCC3)ccc2S1(=O)=O here?
**A.** The AC50 was 22.8 µM (active).

**Q.** And the AC50 (HEK293 [2])?
**A.** The AC50 was 18.8 µM (active).

**Q.** What about the AC50 [3] of the same molecule?
**A.** The AC50 was 24.4 µM (active).

**Q.** What about the AC50 [4] of the same molecule?
**A.** The AC50 was 18.8 µM (active).

**Q.** And the AC50 (HepG2)?
**A.** Its AC50 is 19.4 µM (active).

**Q.** For Cc1cc2nn(-c3ccc(Cl)cc3)nc2cc1N, which AC50 [5] is on record?
**A.** The AC50 was 21.4 µM (active).

**Q.** For CN1CCN(C)/C(=N/c2ccc(C#N)cc2C(=O)Nc2ccccc2)C1, which IC50 [6] is on record?
**A.** Its IC50 is 380 nM (active).

**Q.** What does the source list for C[C@@H]1CN([C@@H](C)CO)C(=O)Cc2cc(NC(=O)Nc3ccc(C(F)(F)F)cc3)ccc2O[C@H]1CN(C)Cc1ccc(Oc2ccccc2)cc1?
**A.** AC50 (Paired box protein Pax-8): 10.3 µM (active); AC50 [7]: 39.9 µM (active); AC50 [8]: 19.9 µM (active); AC50 [9]: 19.9 µM (active)

**Q.** Which AC50 [10] does the source give for O=C(Nc1nnc(-c2ccc3c(c2)OCCO3)o1)C(F)(F)c1ccccc1 here?
**A.** Its AC50 is > 200 µM (inactive).

**Q.** For Cc1c(C(=O)N2CCN(Cc3ccc4c(c3)OCO4)CC2)sc2ncnc(N3CCN(c4ccccc4F)CC3)c12, which IC50 [11] is on record?
**A.** The IC50 was 6.85 µM (active).

**Q.** And the EC50 [12]?
**A.** The EC50 was > 60 µM (not active).

**Q.** What about the EC50 [13] of the same molecule?
**A.** Its EC50 is 487 nM (active).

**Q.** For COC(=O)c1cc(Br)cnc1N1CCC(NC2CCCCC2)C1 (stereo unspecified), which IC50 [14] is on record?
**A.** Its IC50 is > 50 µM (inactive).

**Q.** What about the IC50 (Mu-type opioid receptor) of the same molecule?
**A.** The IC50 was 20 µM (inactive).

**Q.** With O=C(CN1CCOCC1)N1CCCCN2[C@@H](CO)[C@H](c3ccc(Br)cc3)[C@@H]2C1 as the molecule, how does the AC50 [15] read?
**A.** Its AC50 is 7.96 µM (active).

**Q.** Which AC50 (HEK293 [16]) does the source give for Cc1ccccc1C(=O)N1CCN(c2ccc(NC(=O)CSc3ccc(Cl)cc3)cc2)CC1 here?
**A.** Its AC50 is 378 nM (active).

**Q.** What about the AC50 [17] of the same molecule?
**A.** Its AC50 is 25.2 µM (active).

**Q.** And the IC50 (Interleukin-8 [18])?
**A.** The IC50 was 1.6 µM (active).

**Q.** What about the AC50 [19] of the same molecule?
**A.** Its AC50 is 44.1 µM (active).

**Q.** What about the AC50 [20] of the same molecule?
**A.** Its AC50 is 6.91 µM (active).

**Q.** And the IC50 (Interleukin-8 [21])?
**A.** Its IC50 is 39.9 µM (inactive).

**Q.** And the AC50 [22]?
**A.** The AC50 was 38.8 µM (active).

**Q.** And the AC50 [23]?
**A.** The AC50 was 4.23 µM (active).

— ChEMBL document CHEMBL1201862, “PubChem BioAssay data set” (2004)
